Measured values taken from US20220119354A1, “DIAMINO-SUBSTITUTED PYRIDINES AND PYRIMIDINES AS HERBICIDES” (FMC Corporation, priority 2019, published 2022).

Experiments:
Assay type in all cases: in vivo
[1] = test system: ragweed (common ragweed, Ambrosia elatior); test: Test A preemergence, ragweed; settings: 0 to 100 scale, 0 is no effect, 100 is complete control
Outline: (§1)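 Visual injury scores (0 no effect to 100 complete control) were assigned about 10 d after treatment by comparison with untreated controls. Test chemicals, formulated in a surfactant-containing non-phytotoxic solvent, were applied to soil at planting or to plants at the one- to two-leaf stage.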

kochia (Kochia scoparia) [2] = test: Test A postemergence, kochia; settings: 0 to 100 scale; for Plant response rating, Kochia: 0 no effect, 100 complete control
Outline: as §1

[3] = test system: ducksalad (Heteranthera limosa); test: Test B flooded paddy test, ducksalad; settings: Flood, 250 g ai/ha, applied to paddy water, 2-leaf stage, visual evaluation after 13 to 15 d
Outline: (§2)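 Each response is a visual 0–100 rating made against untreated controls, where 0 is no effect and 100 is complete control; a dash marks no result. Compound was dosed into 3 cm paddy water over 2-leaf plants, assessed after 13 to 15 d.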

[4] = test system: pigweed (Amaranthus retroflexus); test: Test A preemergence, pigweed; settings: 0 to 100 scale, 0 is no effect, 100 is complete control
Outline: as §1

[5] = test system: barnyardgrass (Echinochloa crus-galli); test: Test A postemergence, barnyardgrass; settings: 0 to 100 scale; for Plant response rating, Barnyardgrass: 0 no effect, 100 complete control
Outline: as §1

[6] = test system: barnyardgrass (Echinochloa crus-galli); test: Test A preemergence, barnyardgrass; settings: 0 to 100 scale, 0 is no effect, 100 is complete control
Outline: as §1

[7] = test system: galium (catchweed bedstraw, Galium aparine); test: Test A postemergence, galium; settings: 0 to 100 scale; for Plant response rating, Galium: 0 no effect, 100 complete control
Outline: as §1

[8] = test system: ryegrass, Italian (Lolium multiflorum); test: Test A postemergence, Italian ryegrass; settings: 0 to 100 scale; for Plant response rating, Ryegrass, Italian: 0 no effect, 100 complete control
Outline: as §1

[9] = test system: ryegrass, Italian (Lolium multiflorum); test: Test A preemergence, Italian ryegrass; settings: 0 to 100 scale, 0 is no effect, 100 is complete control
Outline: as §1

[10] = test system: sedge, umbrella (small-flower umbrella sedge, Cyperus difformis); test: Test B flooded paddy test, umbrella sedge; settings: Flood, 250 g ai/ha, applied to paddy water, 2-leaf stage, visual evaluation after 13 to 15 d
Outline: as §2

[11] = test system: foxtail, giant (Setaria faberii); test: Test A preemergence, giant foxtail; settings: 0 to 100 scale, 0 is no effect, 100 is complete control
Outline: as §1

[12] = test system: ragweed (common ragweed, Ambrosia elatior); test: Test A postemergence, ragweed; settings: 0 to 100 scale; for Plant response rating, Ragweed: 0 no effect, 100 complete control
Outline: as §1

[13] = test system: barnyardgrass (Echinochloa crus-galli); test: Test B flooded paddy test, barnyardgrass; settings: Flood, 250 g ai/ha, applied to paddy water, 2-leaf stage, visual evaluation after 13 to 15 d
Outline: as §2

kochia (Kochia scoparia) [14] = test: Test A preemergence, kochia; settings: 0 to 100 scale, 0 is no effect, 100 is complete control
Outline: as §1

[15] = test system: foxtail, giant (Setaria faberii); test: Test A postemergence, giant foxtail; settings: 0 to 100 scale; for Plant response rating, Foxtail, Giant: 0 no effect, 100 complete control
Outline: as §1

corn (Zea mays) = test: Test A postemergence, corn; settings: 0 to 100 scale; for Plant response rating, Corn: 0 no effect, 100 complete control
Outline: as §1

rice (Oryza sativa) = test: Test B flooded paddy test, rice; settings: Flood, 250 g ai/ha, applied to paddy water, 2-leaf stage, visual evaluation after 13 to 15 d
Outline: as §2

[16] = test system: blackgrass (Alopecurus myosuroides); test: Test A postemergence, blackgrass; settings: 0 to 100 scale; for Plant response rating, Blackgrass: 0 no effect, 100 complete control
Outline: as §1

[17] = test system: wheat (Triticum aestivum); test: Test A postemergence, wheat; settings: 0 to 100 scale; for Plant response rating, Wheat: 0 no effect, 100 complete control
Outline: as §1

[18] = test system: pigweed (Amaranthus retroflexus); test: Test A postemergence, pigweed; settings: 0 to 100 scale; for Plant response rating, Pigweed: 0 no effect, 100 complete control
Outline: as §1

[19] = 500 g ai/ha, 0 is no effect, 100 is complete control

Compound | Ragweed plant response rating ([1]; 125 g ai/ha) | Ragweed plant response rating ([1]; 500 g ai/ha) | Plant response rating, Kochia (kochia (Kochia scoparia) [2]; 125 g ai/ha) | Plant response rating, Ducksalad (0 to 100 scale, 0 is no effect, 100 is complete control) [3] | Pigweed plant response rating ([4]; 125 g ai/ha) | Pigweed plant response rating ([4]; 500 g ai/ha) | Plant response rating, Barnyardgrass ([5]; 125 g ai/ha) | Barnyardgrass plant response rating ([6]; 125 g ai/ha) | Barnyardgrass plant response rating ([6]; 500 g ai/ha) | Plant response rating, Galium ([7]; 125 g ai/ha) | Plant response rating, Ryegrass, Italian ([8]; 125 g ai/ha) | Ryegrass, Italian plant response rating ([9]; 125 g ai/ha) | Ryegrass, Italian plant response rating ([9]; 500 g ai/ha) | Plant response rating, Sedge, Umbrella (0 to 100 scale, 0 is no effect, 100 is complete control) [10] | Foxtail, Giant plant response rating ([11]; 125 g ai/ha) | Foxtail, Giant plant response rating ([11]; 500 g ai/ha) | Plant response rating, Ragweed ([12]; 125 g ai/ha) | Plant response rating, Barnyardgrass (0 to 100 scale, 0 is no effect, 100 is complete control) [13] | Kochia plant response rating (kochia (Kochia scoparia) [14]; 125 g ai/ha) | Kochia plant response rating (kochia (Kochia scoparia) [14]; 500 g ai/ha) | other results
CCC(Nc1ncc(C(F)(F)F)c(N)n1)c1coc2ccccc12 (racemic) [Compound 53] | 100 | 90 | 50 | 0 | 80 | 90 | 0 | 0 | 80 | 30 | 20 | 20 | 20 | 0 | 90 | 90 | 20 | 0 | 60 | 90 | Kochia plant response rating (kochia (Kochia scoparia) [2]; [19]): 90; Barnyardgrass plant response rating [5, 19]: 30; Galium plant response rating [7, 19]: 80; Ryegrass, Italian plant response rating [8, 19]: 60; Ragweed plant response rating [12, 19]: 80; Plant response rating, Foxtail, Giant ([15]; 125 g ai/ha): 10; Foxtail, Giant plant response rating [15, 19]: 30; Plant response rating, Corn (corn (Zea mays); 125 g ai/ha): 0; Corn plant response rating (corn (Zea mays); [19]): 0; Plant response rating, Rice (0 to 100 scale, 0 is no effect, 100 is complete control) (rice (Oryza sativa)): 0; Plant response rating, Blackgrass ([16]; 125 g ai/ha): 0; Blackgrass plant response rating [16, 19]: 0; Plant response rating, Wheat ([17]; 125 g ai/ha): 0; Wheat plant response rating [17, 19]: 0; Plant response rating, Pigweed ([18]; 125 g ai/ha): 60; Pigweed plant response rating [18, 19]: 100
CC(Nc1nc(N)c(C(F)(F)F)c(C(F)(F)F)n1)c1cc2ccccc2o1 (racemic) [Compound 58] | 0 | 0 | 30 | 0 | 0 | 0 | 0 | 0 | 0 | 0 | 0 | 0 | 0 | 0 | 0 | 0 | 0 | 0 | 0 | 0 | Plant response rating, Kochia (kochia (Kochia scoparia) [2]; 500 g ai/ha): 80; Plant response rating, Barnyardgrass ([5]; 500 g ai/ha): 50; Plant response rating, Galium ([7]; 500 g ai/ha): 20; Plant response rating, Ryegrass, Italian ([8]; 500 g ai/ha): 0; Plant response rating, Ragweed ([12]; 500 g ai/ha): 20; Plant response rating, Foxtail, Giant ([15]; 125 g ai/ha): 0; Plant response rating, Foxtail, Giant ([15]; 500 g ai/ha): 10; Plant response rating, Corn (corn (Zea mays); 125 g ai/ha): 0; Plant response rating, Corn (corn (Zea mays); 500 g ai/ha): 0; Plant response rating, Rice (0 to 100 scale, 0 is no effect, 100 is complete control) (rice (Oryza sativa)): 0; Plant response rating, Blackgrass ([16]; 125 g ai/ha): 0; Plant response rating, Blackgrass ([16]; 500 g ai/ha): 0; Plant response rating, Wheat ([17]; 125 g ai/ha): 0; Plant response rating, Wheat ([17]; 500 g ai/ha): 0; Plant response rating, Pigweed ([18]; 125 g ai/ha): 20; Plant response rating, Pigweed ([18]; 500 g ai/ha): 60
CC(Nc1nc(N)c(C(F)(F)F)c(C(F)(F)F)n1)C1Cc2ccccc2C1 (racemic) [Compound 69] | 0 | 70 | 30 | 0 | 0 | 70 | 0 | 0 | 0 | 0 | 0 | 0 | 0 | 0 | 0 | 0 | 0 | 0 | 0 | 70 | Plant response rating, Kochia (kochia (Kochia scoparia) [2]; 500 g ai/ha): 80; Plant response rating, Barnyardgrass ([5]; 500 g ai/ha): 0; Plant response rating, Galium ([7]; 500 g ai/ha): 0; Plant response rating, Ryegrass, Italian ([8]; 500 g ai/ha): 0; Plant response rating, Ragweed ([12]; 500 g ai/ha): 0; Plant response rating, Foxtail, Giant ([15]; 125 g ai/ha): 0; Plant response rating, Foxtail, Giant ([15]; 500 g ai/ha): 0; Plant response rating, Corn (corn (Zea mays); 125 g ai/ha): 20; Plant response rating, Corn (corn (Zea mays); 500 g ai/ha): 0; Plant response rating, Rice (0 to 100 scale, 0 is no effect, 100 is complete control) (rice (Oryza sativa)): 0; Plant response rating, Blackgrass ([16]; 125 g ai/ha): 0; Plant response rating, Blackgrass ([16]; 500 g ai/ha): 30; Plant response rating, Wheat ([17]; 125 g ai/ha): 0; Plant response rating, Wheat ([17]; 500 g ai/ha): 0; Plant response rating, Pigweed ([18]; 125 g ai/ha): 20; Plant response rating, Pigweed ([18]; 500 g ai/ha): 80
